Activity calls are given as the source filed them.

The target of experiment [1] is T1, Protein RecA (Mycobacterium tuberculosis, UniProt P9WHJ3).
T1 sequence (P9WHJ3 whole entry): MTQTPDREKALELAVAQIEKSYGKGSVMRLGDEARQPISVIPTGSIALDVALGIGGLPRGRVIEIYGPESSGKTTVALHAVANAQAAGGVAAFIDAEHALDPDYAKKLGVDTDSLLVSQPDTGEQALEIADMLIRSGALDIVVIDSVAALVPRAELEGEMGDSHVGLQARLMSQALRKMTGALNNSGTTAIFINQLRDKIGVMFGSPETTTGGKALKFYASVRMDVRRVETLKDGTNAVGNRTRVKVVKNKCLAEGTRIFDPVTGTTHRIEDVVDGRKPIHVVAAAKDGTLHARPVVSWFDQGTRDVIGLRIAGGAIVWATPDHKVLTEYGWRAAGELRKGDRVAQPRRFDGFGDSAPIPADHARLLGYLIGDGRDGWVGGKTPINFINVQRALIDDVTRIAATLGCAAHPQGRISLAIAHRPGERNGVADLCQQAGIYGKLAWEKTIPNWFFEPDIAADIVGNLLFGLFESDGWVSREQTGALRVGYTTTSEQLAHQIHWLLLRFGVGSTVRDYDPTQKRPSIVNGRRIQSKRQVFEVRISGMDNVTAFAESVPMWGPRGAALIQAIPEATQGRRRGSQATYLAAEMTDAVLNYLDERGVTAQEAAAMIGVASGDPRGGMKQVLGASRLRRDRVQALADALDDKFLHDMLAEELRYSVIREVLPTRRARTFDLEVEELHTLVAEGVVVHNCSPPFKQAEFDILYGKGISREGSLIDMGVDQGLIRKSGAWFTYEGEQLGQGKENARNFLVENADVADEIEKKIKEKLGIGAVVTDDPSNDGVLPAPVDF
The experiment in a line: Fluorescence Cell-Free Homogeneous Dose Retest to Identify Inhibitors of RecA-Intein Splicing Activity. [Related pubchem assays (depositor defined):AID2097, AID2223, AID489010, AID492950]. It counts as functional.

The subject of experiment [2] is Streptococcus. The experiment is described as follows: GAS UMAA2166 growth inhibition – luminescence, BacTiterGlo, counter-screen for streptokinase expression inhibitor project, dose response (AID 1915).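 Further: potency for reduction of bacterial viability or growth.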 The settings on record: read-out: EC50. Format: functional, organism-based.
Experiment [3] concerns the target ALK tyrosine kinase receptor (Homo sapiens, UniProt Q9UM73). It counts as functional.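 Further: ALK tested as one member of a kinase panel screen.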
Experiment [4] has as its target Macrophage colony-stimulating factor 1 receptor (Homo sapiens, UniProt P07333). Format: functional.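 Further: value comes from the Navigating the Kinome screening panel, CSF1R member.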
Experiment [5] has as its target MAP/microtubule affinity-regulating kinase 3 (Homo sapiens, UniProt P27448). Format: functional.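 Further: MARK3 affinity measured as one member of a kinome panel.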
The target of experiment [6] is 5'-AMP-activated protein kinase catalytic subunit alpha-1 (Homo sapiens, UniProt Q13131). Format: functional.
In experiment [7] the target is T2, Sentrin-specific protease 6 (Homo sapiens, UniProt Q9GZR1).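 Further: Luminescence-based dose-response confirmatory assay of SENP6 inhibition, following up an ultra-high-throughput screen.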
T2 sequence (Q9GZR1 whole entry): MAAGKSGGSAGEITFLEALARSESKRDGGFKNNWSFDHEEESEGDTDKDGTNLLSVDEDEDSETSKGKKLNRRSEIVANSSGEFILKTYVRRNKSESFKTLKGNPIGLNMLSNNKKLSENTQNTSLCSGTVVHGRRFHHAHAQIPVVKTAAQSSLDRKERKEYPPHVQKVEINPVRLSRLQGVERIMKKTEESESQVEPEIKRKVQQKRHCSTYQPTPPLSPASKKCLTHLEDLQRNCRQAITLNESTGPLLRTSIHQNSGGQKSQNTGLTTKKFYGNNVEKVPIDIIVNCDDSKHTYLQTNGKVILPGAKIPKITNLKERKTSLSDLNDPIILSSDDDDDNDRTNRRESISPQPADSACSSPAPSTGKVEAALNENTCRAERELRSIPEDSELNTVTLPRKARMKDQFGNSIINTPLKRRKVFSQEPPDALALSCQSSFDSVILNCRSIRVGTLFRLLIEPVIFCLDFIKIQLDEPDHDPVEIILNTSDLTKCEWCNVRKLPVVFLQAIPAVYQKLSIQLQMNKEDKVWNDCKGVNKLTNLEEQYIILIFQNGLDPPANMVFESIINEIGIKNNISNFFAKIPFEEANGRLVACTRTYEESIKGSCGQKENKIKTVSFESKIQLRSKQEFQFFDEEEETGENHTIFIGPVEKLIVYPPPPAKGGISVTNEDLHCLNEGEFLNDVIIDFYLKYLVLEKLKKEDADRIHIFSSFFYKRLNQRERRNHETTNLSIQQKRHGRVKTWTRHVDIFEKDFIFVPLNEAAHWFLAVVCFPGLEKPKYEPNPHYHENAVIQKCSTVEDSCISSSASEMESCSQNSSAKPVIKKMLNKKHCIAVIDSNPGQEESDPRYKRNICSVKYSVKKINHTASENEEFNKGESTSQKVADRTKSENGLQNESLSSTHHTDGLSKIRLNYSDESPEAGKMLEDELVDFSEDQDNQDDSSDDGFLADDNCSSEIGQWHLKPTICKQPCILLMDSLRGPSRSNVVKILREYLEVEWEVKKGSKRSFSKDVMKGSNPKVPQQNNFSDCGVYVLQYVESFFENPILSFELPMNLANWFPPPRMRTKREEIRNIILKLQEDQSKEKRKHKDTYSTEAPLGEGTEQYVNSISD
Format: functional.

MAP/microtubule affinity-regulating kinase 3, sequence (P27448 whole entry): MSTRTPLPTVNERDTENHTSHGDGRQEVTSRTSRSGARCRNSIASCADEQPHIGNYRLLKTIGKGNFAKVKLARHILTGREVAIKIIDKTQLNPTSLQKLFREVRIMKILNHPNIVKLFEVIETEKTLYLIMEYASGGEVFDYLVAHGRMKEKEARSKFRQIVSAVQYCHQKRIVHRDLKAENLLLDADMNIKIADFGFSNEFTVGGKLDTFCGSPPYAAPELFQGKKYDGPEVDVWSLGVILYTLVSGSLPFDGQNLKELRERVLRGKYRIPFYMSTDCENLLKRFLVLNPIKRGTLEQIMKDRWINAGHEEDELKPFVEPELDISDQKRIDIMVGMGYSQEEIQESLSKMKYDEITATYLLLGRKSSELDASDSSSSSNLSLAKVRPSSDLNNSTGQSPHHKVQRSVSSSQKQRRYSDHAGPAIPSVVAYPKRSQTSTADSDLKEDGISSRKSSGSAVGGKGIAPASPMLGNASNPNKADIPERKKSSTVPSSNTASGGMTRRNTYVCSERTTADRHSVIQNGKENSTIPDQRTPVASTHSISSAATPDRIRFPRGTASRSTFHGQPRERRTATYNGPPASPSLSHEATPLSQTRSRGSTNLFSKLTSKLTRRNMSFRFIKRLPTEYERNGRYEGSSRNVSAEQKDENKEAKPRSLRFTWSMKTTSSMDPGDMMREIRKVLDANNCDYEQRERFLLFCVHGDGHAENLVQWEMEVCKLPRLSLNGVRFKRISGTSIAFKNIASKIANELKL
ALK tyrosine kinase receptor, sequence (Q9UM73 whole entry): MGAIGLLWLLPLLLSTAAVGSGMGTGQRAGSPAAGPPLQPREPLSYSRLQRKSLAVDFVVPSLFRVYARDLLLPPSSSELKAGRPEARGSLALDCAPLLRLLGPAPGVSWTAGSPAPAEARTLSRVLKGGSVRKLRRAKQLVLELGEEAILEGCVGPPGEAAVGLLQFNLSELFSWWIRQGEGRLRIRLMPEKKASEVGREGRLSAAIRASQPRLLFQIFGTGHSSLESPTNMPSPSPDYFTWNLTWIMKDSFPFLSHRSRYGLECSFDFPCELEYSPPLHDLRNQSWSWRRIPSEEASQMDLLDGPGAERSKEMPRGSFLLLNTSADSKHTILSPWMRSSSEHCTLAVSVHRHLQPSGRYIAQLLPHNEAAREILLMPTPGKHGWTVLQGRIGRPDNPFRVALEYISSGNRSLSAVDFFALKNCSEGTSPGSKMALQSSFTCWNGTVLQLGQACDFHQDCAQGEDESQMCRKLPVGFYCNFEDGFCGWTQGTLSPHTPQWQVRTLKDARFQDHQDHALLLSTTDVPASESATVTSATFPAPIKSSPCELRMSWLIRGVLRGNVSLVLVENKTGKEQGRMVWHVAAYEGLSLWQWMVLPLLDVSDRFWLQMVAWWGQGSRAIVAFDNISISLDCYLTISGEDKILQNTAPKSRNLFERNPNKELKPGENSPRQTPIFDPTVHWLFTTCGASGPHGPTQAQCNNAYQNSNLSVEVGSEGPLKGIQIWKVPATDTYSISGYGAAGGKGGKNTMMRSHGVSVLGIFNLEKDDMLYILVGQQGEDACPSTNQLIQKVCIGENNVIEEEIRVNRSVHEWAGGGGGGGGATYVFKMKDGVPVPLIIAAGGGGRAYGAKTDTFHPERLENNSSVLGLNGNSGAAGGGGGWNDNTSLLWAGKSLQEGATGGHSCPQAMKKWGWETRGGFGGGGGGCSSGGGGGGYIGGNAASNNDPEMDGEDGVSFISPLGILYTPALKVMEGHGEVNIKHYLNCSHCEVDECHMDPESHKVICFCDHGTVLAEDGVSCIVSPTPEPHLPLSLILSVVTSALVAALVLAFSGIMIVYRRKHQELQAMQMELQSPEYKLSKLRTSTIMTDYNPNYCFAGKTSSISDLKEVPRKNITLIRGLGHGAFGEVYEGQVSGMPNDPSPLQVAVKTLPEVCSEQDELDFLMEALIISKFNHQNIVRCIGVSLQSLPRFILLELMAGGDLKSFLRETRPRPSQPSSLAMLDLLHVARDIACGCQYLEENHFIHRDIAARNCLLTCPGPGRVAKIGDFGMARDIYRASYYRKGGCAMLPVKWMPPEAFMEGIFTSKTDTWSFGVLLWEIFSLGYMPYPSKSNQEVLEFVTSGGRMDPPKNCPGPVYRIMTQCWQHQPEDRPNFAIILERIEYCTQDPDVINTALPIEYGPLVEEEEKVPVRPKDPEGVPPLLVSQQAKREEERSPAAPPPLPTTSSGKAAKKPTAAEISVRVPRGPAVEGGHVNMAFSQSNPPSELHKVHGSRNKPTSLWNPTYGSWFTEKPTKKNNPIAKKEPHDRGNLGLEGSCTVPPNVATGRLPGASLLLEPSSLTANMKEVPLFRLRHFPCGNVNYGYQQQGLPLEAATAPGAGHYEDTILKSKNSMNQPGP
5'-AMP-activated protein kinase catalytic subunit alpha-1, sequence (Q13131 whole entry): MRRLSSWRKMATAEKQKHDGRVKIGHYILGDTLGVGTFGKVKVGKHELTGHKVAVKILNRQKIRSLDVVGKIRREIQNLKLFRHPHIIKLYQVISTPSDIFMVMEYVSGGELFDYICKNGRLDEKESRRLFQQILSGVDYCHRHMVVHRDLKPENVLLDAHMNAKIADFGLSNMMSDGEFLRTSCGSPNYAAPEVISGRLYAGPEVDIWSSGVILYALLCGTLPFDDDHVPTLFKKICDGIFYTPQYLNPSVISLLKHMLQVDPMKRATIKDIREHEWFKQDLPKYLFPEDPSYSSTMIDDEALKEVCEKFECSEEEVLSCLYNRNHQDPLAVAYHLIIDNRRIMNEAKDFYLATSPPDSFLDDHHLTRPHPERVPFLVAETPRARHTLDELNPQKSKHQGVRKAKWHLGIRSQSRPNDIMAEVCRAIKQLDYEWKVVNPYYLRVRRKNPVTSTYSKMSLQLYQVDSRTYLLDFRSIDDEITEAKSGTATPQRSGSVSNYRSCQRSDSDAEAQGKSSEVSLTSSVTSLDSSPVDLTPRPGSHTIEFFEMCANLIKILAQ
Macrophage colony-stimulating factor 1 receptor, sequence (P07333 whole entry): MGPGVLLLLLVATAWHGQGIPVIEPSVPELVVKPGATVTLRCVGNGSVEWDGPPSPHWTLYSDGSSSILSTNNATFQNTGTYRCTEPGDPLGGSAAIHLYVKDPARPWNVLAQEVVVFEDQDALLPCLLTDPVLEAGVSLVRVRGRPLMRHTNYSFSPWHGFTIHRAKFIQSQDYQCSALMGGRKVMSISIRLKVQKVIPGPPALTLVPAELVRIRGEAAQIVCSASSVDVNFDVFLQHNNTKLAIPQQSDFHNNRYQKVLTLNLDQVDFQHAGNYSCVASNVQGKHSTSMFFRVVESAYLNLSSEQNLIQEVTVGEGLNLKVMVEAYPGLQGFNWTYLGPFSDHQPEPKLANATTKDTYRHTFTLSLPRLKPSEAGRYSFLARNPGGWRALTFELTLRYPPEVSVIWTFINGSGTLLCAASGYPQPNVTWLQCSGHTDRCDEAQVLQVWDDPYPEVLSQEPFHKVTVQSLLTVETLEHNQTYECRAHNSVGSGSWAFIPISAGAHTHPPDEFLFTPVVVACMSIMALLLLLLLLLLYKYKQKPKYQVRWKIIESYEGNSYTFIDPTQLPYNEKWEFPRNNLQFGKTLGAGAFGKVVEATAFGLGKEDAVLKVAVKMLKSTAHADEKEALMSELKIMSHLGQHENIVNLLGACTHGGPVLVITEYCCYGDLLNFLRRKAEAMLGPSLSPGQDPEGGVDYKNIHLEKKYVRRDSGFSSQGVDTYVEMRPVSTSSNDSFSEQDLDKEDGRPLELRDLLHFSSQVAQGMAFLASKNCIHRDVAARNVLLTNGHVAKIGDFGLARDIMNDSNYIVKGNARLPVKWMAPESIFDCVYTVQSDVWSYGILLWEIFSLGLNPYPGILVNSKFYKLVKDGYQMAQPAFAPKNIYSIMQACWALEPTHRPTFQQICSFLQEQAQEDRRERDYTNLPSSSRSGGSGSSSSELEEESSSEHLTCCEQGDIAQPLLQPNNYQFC

As for `CCCCCCCCCCC[N+](C)(C)CC/C=C1/c2ccccc2Sc2ccc(Cl)cc21`, the EC50 was 10.1 µM (active) in experiment [1] and 7.23 µM (active) in experiment [2].

In the case of `CCn1c(-c2nonc2N)nc2cncc(C(=O)N3CCC(N)C3)c21` (centres undefined), the Ki is > 6.31 µM (inactive) in experiment [3], > 2.51 µM (inactive) in experiment [4], 2 µM (active) in experiment [5] and > 3.16 µM (inactive) in experiment [6].

With `Cc1cc(C)c[n+](C2=C([N-]S(=O)(=O)c3cccs3)C(=O)c3ccccc3C2=O)c1`, in experiment [7], the IC50 was 15.1 µM (active). The EC50 in experiment [2] is 9.57 µM (active).

With `Cc1[nH]nc2ccc(-c3cncc(OCC(N)Cc4c[nH]c5ccccc45)c3)cc12` (centres undefined), the Ki in experiment [3] is > 1.26 µM (inactive); in experiment [4] it was > 2.51 µM (inactive); in experiment [5] it was 0.398 µM (active); in experiment [6], 0.158 µM (active).

For `COC(=O)c1ccccc1NC1=C/C(=N\S(=O)(=O)c2cccs2)c2ccccc2C1=O`, the IC50 in experiment [7] was 1.86 µM (active). In experiment [1], the EC50 is 0.0208 µM (inconclusive).
